From US5834487A, “Inhibition of 26S and 20S proteasome by indanones” (CV Therapeutics, priority 1996, dated 1998)
Read-outs that look alike come from different tables or passages of the source. Non-standard residues stand in square brackets, D forms with d. Residues, ends and D or L forms follow the SMILES beside them. *: point of attachment. Nva = CCC[C@H](N)C(=O)O; Cbz = O=C(OCc1ccccc1)*

Assays:
[1] = target: T1, 20S catalytic subunit of the proteasome (multicatalytic proteinase complex) (Bos taurus, UniProt Q32KL2); test: 20S proteasome chymotryptic activity, fluorogenic peptide cleavage; format: biochemical, bovine; details: 50 μM succinyl-leu-leu-val-tyr-7-amino-4-methyl coumarin, 15 minutes at 37° C, pH7.5
T1 construct: was purified to homogeneity from bovine brain according to published methods; from tissue; host or cells: bovine brain
Summary of the method: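 Purified bovine-brain 20S proteasome (2 μg) with 0.1-100 μg/ml inhibitor in 50 mM HEPES, 0.1% SDS, pH 7.5. Reaction started with 50 μM Suc-LLVY-AMC, 15 min at 37° C, stopped with pH 4.0 acetate; liberated AMC read by fluorescence (ex 370, em 430 nm).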

RAW cells = test: Celltiter 96 Aqueous cell proliferation assay, RAW; format: cell-based; details: 18 hours with compound
Protocol: (§1) Compounds prepared according to the method of Example 1 were assayed against several different cell lines. Cell monolayers were cultured in the presence of test compound for 18 hours to access their ability to inhibit cell proliferation. Cell proliferation was determined colorimetrically using the Celltiter 96 Aqueous non-radioactive cell proliferation assay (Promega) where cell proliferation is directly proportional to absorbance at 490 nm. Results are quoted as the IC50 in μg/ml for inhibition of cell proliferation in various cell types.

MCF-7 cells = test: Celltiter 96 Aqueous cell proliferation assay, MCF-7; format: cell-based; details: MCF-7, 18 hours with compound
Protocol: as §1

OVCAR cells = test: Celltiter 96 Aqueous cell proliferation assay, OVCAR; format: cell-based; details: 18 hours with compound
Protocol: as §1

CaCo cells = test: Celltiter 96 Aqueous cell proliferation assay, CaCo; format: cell-based; details: 18 hours with compound
Protocol: as §1

Panc-I cells = test: Celltiter 96 Aqueous cell proliferation assay, Panc-I; format: cell-based; details: 18 hours with compound
Protocol: as §1

[2] = test system: LPS induced TNF synthesis; test: Inhibition of LPS induced TNF synthesis in RAW cells (ELISA); format: cell-based; details: 1 hour pretreatment, LPS 100 ng/ml, supernatant after 1 hour
Protocol: Compounds prepared according to the method of Example 1 were tested for the inhibition of LPS induced TNF synthesis. RAW cells were pretreated with different concentrations of test compound for 1 hour prior to the administration of lipopolysaccharide (100 ng/mi). Cell culture supernatants were harvested after 1 hour and assayed for TNF concentration by ELISA (Biosource)

IκB degradation = test: Inhibition of LPS-induced IκB degradation, Western blot of RAW cell lysates; format: cell-based; details: 1 hour pretreatment, LPS 100 ng/ml 1 hour, anti-IκBα Western blot (FIG. 1)
Source text: (§2) This Example examines the ability of compound 173 and particularly compound 187 described in Tables 1 & 2 above to inhibit proteasome activity as indicated, in part, by the presence of IκB and/or p105 in inhibited cells. In order for NF-κB to translocate to the nucleus in response to a stimulus such as lipopolysaccharide (LPS) and activate transcription two proteolytic events need to occur, namely degradation of the inhibitory protein IκB and processing of p105 to p50. These proteolytic events serve to unmask the nuclear localization signal of NF-κB.
RAW cells were pretreated with different concentrations of test compound for 1 hour prior to the administration of lipopolysaccharide (100 ng/ml). Whole cell lysates were harvested after 1 hour, 10 μg, protein was separated by SDS-PAGE, transferred to nitrocellulose and assayed for immunoreactivity with anti-IκBa antibody. Western blots, (See FIG. 1), were visualized using the Boehringer Mannheim Chemiluminescent detection kit.

[3] = target: T2, chymotrypsin-like activity associated with the proteasome (Homo sapiens, UniProt P28074); details: cited from earlier work
T2 sequence (P28074 60-263): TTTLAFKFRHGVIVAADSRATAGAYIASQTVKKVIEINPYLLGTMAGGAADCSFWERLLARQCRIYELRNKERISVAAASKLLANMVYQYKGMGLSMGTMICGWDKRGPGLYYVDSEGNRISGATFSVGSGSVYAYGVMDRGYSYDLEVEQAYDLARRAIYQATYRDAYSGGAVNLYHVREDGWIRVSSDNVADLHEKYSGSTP

p105 to p50 processing = test: Inhibition of LPS-induced p105 to p50 processing, Western blot of RAW cell lysates; format: cell-based; details: 1 hour pretreatment, anti-p50 Western blot (FIG. 2)
Source text: as §2
Compound 187 as described in Tables 1 & 2 above was used to pretreat RAW cells as described above, and whole cell lysates prepared as described above were analyzed for immunoreactivity toward an anti-p50 antibody. The results, set forth in FIG. 2 indicate that p50 and […] are both present in cells treated with as little as 5 μg/ml of compound 187, while in untreated cells, majority of P 105 has been processed to p50.

NF-κB = test: Inhibition of LPS-induced translocation of NF-κB to the nucleus, gel mobility shift assay; format: cell-based; details: RAW cells, 20 μg/ml for 1 hour, then LPS 100 ng/ml 1 hour (FIG. 3)
Protocol: RAW cells were treated for 1 hour with compound 187 (20 μg/ml) and then incubated with lipopolysaccharide (100 ng/ml) for a further one hour. Nuclear fractions were prepared according to standard procedures. Binding reactions for gel mobility shift assays contained 5 μg of nuclear extract protein, 50,000 cpm of ^32 P-labeled NF-κB consensus binding oligonucleotide in the presence and absence of a fifty fold excess of unlabeled oligonucleotide.

| Molecule | IC50 [1] [µg/mL] | IC50 for inhibition of cell proliferation, OVCAR (OVCAR cells) [µg/mL] | IC50 inhibition of LPS induced TNF synthesis [2] [µg/mL] | IC50 for inhibition of cell proliferation, RAW (RAW cells) [µg/mL] | IC50 for inhibition of cell proliferation, Panc-I (Panc-I cells) [µg/mL] | other results |
| --- | --- | --- | --- | --- | --- | --- |
| CSCC[C@@H](C=O)NC(=O)[C@H](CC(C)C)NC(=O)[C@H](CC(C)C)NC(C)=O [LLM, N-acetyl-L-leucinyl-L-leucinyl-methional] (Ac-Leu-Leu-Met-aldehyde) |  |  |  |  |  | Ki ([3]; literature values): 0.14 µM |
| CCC[C@@H](C=O)NC(=O)[C@H](CC(C)C)NC(=O)[C@H](CC(C)C)NC(=O)OCc1ccccc1 [MG 115, N-carbobenzoxyl-L-leucinyl-L-leucinyl-L-norvalinal] (Cbz-Leu-Leu-[Nva]-aldehyde) |  |  |  |  |  | Ki ([3]; literature value): 0.021 µM |
| N-acetyl-L-leucinyl-L-leucinal-L-norleucinal [ALLN] |  |  |  |  |  | Ki ([3]; literature values): 0.14 µM |
| COc1ccc2c(c1)C(CC(=O)NC(CC(C)C)C(=O)NC(CC(C)C)C(=O)N1CCOCC1)CC2=O (mixture of isomers) [Compound 174] | > 10 |  |  |  |  |  |
| COc1ccc2c(c1)C(CC(=O)Nc1c(C)cccc1[N+](=O)[O-])CC2=O (racemic) [Compound 153] | > 10 |  |  |  |  |  |
| COc1ccc2c(c1)C(CC(=O)NC(Cc1c[nH]c3ccccc13)C(=O)NC(CC(C)C)C(N)=O)CC2=O (mixture of isomers) [Compound 103] | > 10 |  |  |  |  |  |
| COc1ccc2c(c1)C(CC(=O)N(C)C)CC2=O (racemic) [Compound 167] | > 50 |  |  |  |  |  |

Further lines, with some results ahead:

| IC50 [1] [µg/mL] | IC50 for inhibition of cell proliferation, OVCAR (OVCAR cells) [µg/mL] | IC50 inhibition of LPS induced TNF synthesis [2] [µg/mL] | Molecule | IC50 for inhibition of cell proliferation, RAW (RAW cells) [µg/mL] | IC50 for inhibition of cell proliferation, Panc-I (Panc-I cells) [µg/mL] | other results |
| --- | --- | --- | --- | --- | --- | --- |
| 0.5 | 8 | 5 | COc1ccc2c(c1)C(CC(=O)NC(CC(C)C)C(=O)NC(CC(C)C)C(=O)NCc1ccccc1)CC2=O (mixture of isomers) [Compound 173] | 20 | 17 | IC50 for inhibition of cell proliferation, MCF-7 (MCF-7 cells): 10 µg/mL; IC50 for inhibition of cell proliferation, CaCo (CaCo cells): 17 µg/mL; concentration at which IκB is present in treated cells (IκB degradation): ≤ 5 µg/mL |
| 0.08 | 2 | 3 | COc1ccc2c(c1)C(CC(=O)NC(CC(C)C)C(=O)NC(CC(C)C)C(=O)NCc1c(F)cccc1F)CC2=O (mixture of isomers) [Compound 196] | 7 | 8 |  |
| > 10 | 3 | 3 | COc1ccc(CNC(=O)C(CC(C)C)NC(=O)C(CC(C)C)NC(=O)CC2CC(=O)c3ccc(OC)cc32)cc1 (mixture of isomers) [Compound 194] | 1 | 8 |  |
| 0.2 | 2 | 3 | COc1ccc2c(c1)C(CC(=O)NC(CC(C)C)C(=O)NC(CC(C)C)C(=O)NCc1ccc3c(c1)OCO3)CC2=O (mixture of isomers) [Compound 197] | 12 | 8 |  |
| 0.5 | 5 | 5 | COc1ccc2c(c1)C(CC(=O)NC(CC(C)C)C(=O)NC(CC(C)C)C(=O)NC1CCc3ccccc31)CC2=O (mixture of isomers) [Compound 187] | 10 | 7 | IC50 for inhibition of cell proliferation, MCF-7 (MCF-7 cells): 6 µg/mL; IC50 for inhibition of cell proliferation, CaCo (CaCo cells): 8 µg/mL; concentration at which IκB is present in treated cells (IκB degradation): ≤ 5 µg/mL; concentration at which p50 and p150 are both present in treated cells (p105 to p50 processing): ≤ 5 µg/mL; accumulation of NF-κB in the nucleus of cells (NF-κB): effective in inhibiting the accumulation of NF-κB in the nucleus of cells |
| > 10 |  |  | COc1ccc2c(c1)C(CC(=O)NC(CC(C)C)C(=O)NC(CC(C)C)C(=O)NCC(N)=O)CC2=O (mixture of isomers) [Compound 17] |  |  |  |
